Measurements as given in PMC7736581, “Activation of the IRE1 RNase through remodeling of the kinase front pocket by ATP-competitive ligands” (Nature Communications, 2020).

Legend:
Experiment in all cases: biochemical
Design in all cases: Invitrogen kinase panel: Z'Lyte activity (ATP at Km) or LanthaScreen competitive ATP-site binding, percent inhibition
[1] = molecular target: BrSK1 (Homo sapiens, UniProt Q8TDC3)
[2] = molecular target: CAMKK2 (Homo sapiens, UniProt Q96RR4)
[3] = molecular target: T1, CK1_alpha1 (Homo sapiens, UniProt P48729)
T1 construct: gene CSNK1A1

[4] = molecular target: CLK1 (Homo sapiens, UniProt P49759)
[5] = molecular target: T2, CamKII_alpha (Homo sapiens, UniProt Q9UQM7)
T2 construct: gene CAMK2A

[6] = molecular target: DAPK1 (Homo sapiens, UniProt P53355)
[7] = molecular target: DDR1 (Homo sapiens, UniProt Q08345)
[8] = molecular target: DYRK3 (Homo sapiens, UniProt O43781)
[9] = molecular target: Flt4 (Homo sapiens, UniProt P35916)
[10] = molecular target: Frk (Homo sapiens, UniProt P42685)
[11] = molecular target: JAK3 (Homo sapiens, UniProt P52333)
[12] = molecular target: MARK1 (Homo sapiens, UniProt Q9P0L2)
[13] = molecular target: T3, MKK6 (Homo sapiens, UniProt P52564)
T3 construct: gene MAP2K6

[14] = molecular target: MKNK1 (Homo sapiens, UniProt Q9BUB5)
[15] = molecular target: T4, Mer (Homo sapiens, UniProt Q12866)
T4 construct: gene MERTK

[16] = molecular target: PLK1 (Homo sapiens, UniProt P53350)
[17] = molecular target: PLK2 (Homo sapiens, UniProt Q9NYY3)
[18] = molecular target: T5, PRAK (Homo sapiens, UniProt Q8IW41)
T5 construct: gene MAPKAPK5

[19] = molecular target: SGK2 (Homo sapiens, UniProt Q9HBY8)
[20] = molecular target: SIK2 (Homo sapiens, UniProt Q9H0K1)
[21] = molecular target: SPHK1 (Homo sapiens, UniProt Q9NYA1)
[22] = molecular target: T6, TAO2 (Homo sapiens, UniProt Q9UL54)
T6 construct: gene TAOK2

[23] = molecular target: TXK (Homo sapiens, UniProt P42681)
[24] = molecular target: mTOR (Homo sapiens, UniProt P42345)
[25] = molecular target: T7, p38_beta (Homo sapiens, UniProt Q15759)
T7 construct: gene MAPK11

T5 sequence (Q8IW41 whole entry): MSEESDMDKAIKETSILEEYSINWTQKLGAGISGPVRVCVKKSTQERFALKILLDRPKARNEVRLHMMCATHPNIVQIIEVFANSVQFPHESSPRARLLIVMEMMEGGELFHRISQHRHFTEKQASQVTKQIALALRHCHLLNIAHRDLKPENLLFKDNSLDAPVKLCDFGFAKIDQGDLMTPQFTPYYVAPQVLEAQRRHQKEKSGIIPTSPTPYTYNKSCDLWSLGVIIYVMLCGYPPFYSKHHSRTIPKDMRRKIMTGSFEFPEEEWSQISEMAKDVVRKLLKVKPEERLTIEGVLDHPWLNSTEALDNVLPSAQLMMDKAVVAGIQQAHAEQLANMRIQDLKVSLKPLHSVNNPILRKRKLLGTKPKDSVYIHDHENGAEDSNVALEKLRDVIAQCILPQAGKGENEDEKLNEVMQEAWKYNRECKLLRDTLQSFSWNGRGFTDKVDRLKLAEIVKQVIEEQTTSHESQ
Chain of DAPK1 (P53355 whole entry): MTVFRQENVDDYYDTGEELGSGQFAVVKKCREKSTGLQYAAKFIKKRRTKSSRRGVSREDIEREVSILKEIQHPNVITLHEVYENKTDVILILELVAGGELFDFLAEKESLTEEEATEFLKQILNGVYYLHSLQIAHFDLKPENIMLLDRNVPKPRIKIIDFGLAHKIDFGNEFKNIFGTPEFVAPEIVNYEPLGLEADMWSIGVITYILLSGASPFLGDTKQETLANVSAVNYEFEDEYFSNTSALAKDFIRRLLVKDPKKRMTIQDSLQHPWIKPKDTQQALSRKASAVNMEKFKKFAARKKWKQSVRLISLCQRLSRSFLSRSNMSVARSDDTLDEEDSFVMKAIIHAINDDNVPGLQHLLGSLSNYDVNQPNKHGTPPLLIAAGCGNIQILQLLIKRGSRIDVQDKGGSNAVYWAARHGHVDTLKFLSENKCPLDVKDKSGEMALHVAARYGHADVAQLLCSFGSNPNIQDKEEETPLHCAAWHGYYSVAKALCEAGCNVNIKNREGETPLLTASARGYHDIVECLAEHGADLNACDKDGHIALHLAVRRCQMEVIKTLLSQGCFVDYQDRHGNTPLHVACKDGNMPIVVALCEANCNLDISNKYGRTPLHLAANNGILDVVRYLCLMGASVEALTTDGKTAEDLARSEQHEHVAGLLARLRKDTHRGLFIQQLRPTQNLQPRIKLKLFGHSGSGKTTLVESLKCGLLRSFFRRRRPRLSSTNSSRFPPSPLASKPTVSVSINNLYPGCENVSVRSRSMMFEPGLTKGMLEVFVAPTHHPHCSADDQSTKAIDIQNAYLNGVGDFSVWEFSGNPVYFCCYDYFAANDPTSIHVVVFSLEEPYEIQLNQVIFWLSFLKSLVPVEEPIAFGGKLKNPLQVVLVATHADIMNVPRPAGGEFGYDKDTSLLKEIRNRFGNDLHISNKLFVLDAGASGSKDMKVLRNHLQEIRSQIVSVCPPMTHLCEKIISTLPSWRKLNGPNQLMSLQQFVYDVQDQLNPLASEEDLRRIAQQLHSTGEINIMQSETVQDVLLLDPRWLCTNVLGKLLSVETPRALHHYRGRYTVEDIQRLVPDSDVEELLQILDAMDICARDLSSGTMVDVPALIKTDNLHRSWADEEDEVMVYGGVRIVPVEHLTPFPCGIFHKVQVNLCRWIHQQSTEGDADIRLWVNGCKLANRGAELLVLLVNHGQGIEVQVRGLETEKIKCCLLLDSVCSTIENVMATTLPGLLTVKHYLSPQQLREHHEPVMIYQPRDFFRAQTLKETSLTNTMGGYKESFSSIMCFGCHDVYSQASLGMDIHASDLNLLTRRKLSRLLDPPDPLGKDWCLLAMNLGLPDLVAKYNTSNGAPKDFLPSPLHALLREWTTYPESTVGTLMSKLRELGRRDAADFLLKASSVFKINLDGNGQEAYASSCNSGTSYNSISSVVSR
Chain of Frk (P42685 whole entry): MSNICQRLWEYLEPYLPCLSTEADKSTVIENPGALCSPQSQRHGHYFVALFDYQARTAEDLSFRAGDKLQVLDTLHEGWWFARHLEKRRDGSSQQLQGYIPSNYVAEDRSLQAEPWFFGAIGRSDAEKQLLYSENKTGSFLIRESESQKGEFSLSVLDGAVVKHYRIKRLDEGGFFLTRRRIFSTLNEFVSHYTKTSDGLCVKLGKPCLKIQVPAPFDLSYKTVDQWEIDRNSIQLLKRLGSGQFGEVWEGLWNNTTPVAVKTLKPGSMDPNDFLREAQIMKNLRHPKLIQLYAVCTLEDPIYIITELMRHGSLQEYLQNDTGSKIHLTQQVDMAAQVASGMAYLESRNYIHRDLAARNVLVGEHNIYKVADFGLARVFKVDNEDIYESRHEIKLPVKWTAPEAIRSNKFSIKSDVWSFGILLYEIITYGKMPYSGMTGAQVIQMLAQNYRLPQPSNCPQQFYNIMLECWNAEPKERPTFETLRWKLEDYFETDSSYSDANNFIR
Chain of PLK2 (Q9NYY3 whole entry): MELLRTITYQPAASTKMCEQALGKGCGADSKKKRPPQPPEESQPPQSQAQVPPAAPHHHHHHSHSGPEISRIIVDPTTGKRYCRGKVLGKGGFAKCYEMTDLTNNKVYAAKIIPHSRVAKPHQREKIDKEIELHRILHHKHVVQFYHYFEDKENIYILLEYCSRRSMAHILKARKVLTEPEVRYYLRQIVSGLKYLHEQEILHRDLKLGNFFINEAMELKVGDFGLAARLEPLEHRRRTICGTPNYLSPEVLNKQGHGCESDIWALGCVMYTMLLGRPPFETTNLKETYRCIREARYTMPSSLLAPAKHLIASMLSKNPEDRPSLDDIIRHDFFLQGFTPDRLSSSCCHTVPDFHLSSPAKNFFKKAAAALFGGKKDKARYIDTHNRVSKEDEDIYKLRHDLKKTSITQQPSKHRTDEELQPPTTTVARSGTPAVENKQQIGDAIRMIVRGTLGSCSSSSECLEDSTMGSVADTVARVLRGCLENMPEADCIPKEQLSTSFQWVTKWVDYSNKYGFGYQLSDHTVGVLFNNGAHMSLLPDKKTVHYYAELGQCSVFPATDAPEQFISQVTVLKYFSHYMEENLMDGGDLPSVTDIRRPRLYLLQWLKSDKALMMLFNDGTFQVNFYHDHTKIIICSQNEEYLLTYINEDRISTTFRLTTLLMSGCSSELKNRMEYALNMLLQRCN
Chain of MARK1 (Q9P0L2 whole entry): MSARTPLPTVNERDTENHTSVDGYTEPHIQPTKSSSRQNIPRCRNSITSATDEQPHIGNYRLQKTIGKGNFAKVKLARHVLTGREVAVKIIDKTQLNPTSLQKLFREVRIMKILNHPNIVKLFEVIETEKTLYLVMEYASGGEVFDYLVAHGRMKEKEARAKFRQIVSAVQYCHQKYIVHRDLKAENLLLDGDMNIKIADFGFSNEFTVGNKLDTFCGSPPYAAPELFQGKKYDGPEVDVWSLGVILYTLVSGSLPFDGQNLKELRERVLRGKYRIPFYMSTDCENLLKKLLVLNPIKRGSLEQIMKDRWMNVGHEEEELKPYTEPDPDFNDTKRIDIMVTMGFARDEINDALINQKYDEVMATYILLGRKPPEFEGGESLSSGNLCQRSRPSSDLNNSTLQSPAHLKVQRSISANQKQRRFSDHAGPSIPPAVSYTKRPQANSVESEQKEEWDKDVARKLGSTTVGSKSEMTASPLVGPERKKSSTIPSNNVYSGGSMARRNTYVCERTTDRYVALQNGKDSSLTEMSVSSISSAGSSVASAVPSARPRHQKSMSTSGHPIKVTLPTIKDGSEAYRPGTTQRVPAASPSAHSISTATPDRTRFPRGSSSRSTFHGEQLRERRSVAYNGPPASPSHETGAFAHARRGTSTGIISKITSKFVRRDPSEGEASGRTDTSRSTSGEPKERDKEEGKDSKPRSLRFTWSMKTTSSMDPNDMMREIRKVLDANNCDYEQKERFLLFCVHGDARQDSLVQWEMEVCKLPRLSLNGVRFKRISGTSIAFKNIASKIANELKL
Chain of PLK1 (P53350 whole entry): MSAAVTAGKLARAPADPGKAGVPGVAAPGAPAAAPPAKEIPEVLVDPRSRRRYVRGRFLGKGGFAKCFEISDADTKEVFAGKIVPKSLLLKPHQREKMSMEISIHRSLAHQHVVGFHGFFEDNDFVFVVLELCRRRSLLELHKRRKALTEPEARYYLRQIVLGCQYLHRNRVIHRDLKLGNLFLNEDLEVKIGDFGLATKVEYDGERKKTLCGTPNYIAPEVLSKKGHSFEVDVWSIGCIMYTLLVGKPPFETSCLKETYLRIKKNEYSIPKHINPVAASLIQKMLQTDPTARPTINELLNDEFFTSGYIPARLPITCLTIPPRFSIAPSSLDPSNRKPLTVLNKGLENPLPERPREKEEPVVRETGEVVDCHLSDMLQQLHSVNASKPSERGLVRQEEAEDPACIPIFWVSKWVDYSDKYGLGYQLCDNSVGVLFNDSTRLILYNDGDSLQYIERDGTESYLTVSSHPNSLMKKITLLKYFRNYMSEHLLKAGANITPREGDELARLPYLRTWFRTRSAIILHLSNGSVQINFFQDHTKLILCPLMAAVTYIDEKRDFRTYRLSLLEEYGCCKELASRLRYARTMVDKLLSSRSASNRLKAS
Chain of CLK1 (P49759 whole entry): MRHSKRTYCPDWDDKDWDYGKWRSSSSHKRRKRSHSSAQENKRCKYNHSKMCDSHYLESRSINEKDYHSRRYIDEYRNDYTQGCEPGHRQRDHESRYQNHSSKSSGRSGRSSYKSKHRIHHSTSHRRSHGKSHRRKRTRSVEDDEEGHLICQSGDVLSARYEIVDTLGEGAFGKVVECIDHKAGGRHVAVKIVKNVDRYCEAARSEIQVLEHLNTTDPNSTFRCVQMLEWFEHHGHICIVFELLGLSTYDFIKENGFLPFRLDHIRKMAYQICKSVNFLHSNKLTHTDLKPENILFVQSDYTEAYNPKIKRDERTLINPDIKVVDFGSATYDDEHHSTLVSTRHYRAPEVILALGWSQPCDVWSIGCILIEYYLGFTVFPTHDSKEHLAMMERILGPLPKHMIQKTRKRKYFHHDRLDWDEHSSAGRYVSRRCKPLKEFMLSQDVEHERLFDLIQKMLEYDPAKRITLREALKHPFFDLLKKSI

Row | SMILES | inhibition at 1 µM [1] | inhibition at 1 µM [2] | inhibition at 1 µM [3] | inhibition at 1 µM [4] | inhibition at 1 µM [5] | inhibition at 1 µM [6] | inhibition at 1 µM [7] | inhibition at 1 µM [8] | inhibition at 1 µM [9] | inhibition at 1 µM [10] | inhibition at 1 µM [11] | inhibition at 1 µM [12] | inhibition at 1 µM [13] | inhibition at 1 µM [14] | inhibition at 1 µM [15] | inhibition at 1 µM [16] | inhibition at 1 µM [17] | inhibition at 1 µM [18] | inhibition at 1 µM [19] | inhibition at 1 µM [20] | other results
1 | CCOC(=O)Nc1cccc2c(Oc3ncccc3-c3ccnc(N[C@H]4CCCNC4)n3)c(C)ccc12 [G-1749] | 6.5% | -0.5% | -1.5% | 6% | -17.5% | -4% | 46% | 3.5% | 5.5% | 10.5% | -15.5% | 10% | -3.5% | 1.5% | 4.5% | 5% | 3% | 0.5% | 3.5% | -16.5% | inhibition at 1 µM [21]: 14.5%; inhibition at 1 µM [22]: 72.5%; inhibition at 1 µM [23]: 2%; inhibition at 1 µM [24]: 5%; inhibition at 1 µM [25]: 100%
2 | CC#CC(=O)Nc1cccc2c(Oc3ncccc3-c3ccnc(N[C@H]4CCCNC4)n3)c(C)ccc12 [G-7658] | 4.5% | -0.5% | -0.5% | 5.5% | -16% | -4% | 29% | 1% | 6.5% | 1.5% | -15% | 9% | -2% | -1% | 4.5% | 6% | 3% | -1% | 1.5% | 6% | inhibition at 1 µM [21]: -5%; inhibition at 1 µM [22]: 74%; inhibition at 1 µM [23]: 2%; inhibition at 1 µM [24]: 7%; inhibition at 1 µM [25]: 63.5%
